Measurements as given in patent US20200069691A1, “HETEROCYCLIC COMPOUNDS AS HIV PROTEASE INHIBITORS” (Merck Sharp & Dohme Corp., priority 2016, published 2020).

Biological target: T1, wild-type HIV-1 protease (Human immunodeficiency virus type 1 group M subtype B, UniProt P04585)
T1 construct: Escherichia coli expressed wild-type HIV-1 protease protein
Experiment: Assay for Inhibition of Microbial Expressed HIV Protease (peptide substrate cleavage, LC-MS/MS readout)
Assay type: biochemical
Conditions: E. coli expressed wild-type HIV-1 protease, mean of at least two independent experiments, read-out: HIV Pr Enzyme HIV1 PR IC50
Outline: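 Cleavage of Val-Ser-Gln-Asn-(β-naphthyl)Ala-Pro-Ile-Val (400 μM) by recombinant HIV-1 protease ([…]) ran 1 h at 30 °C after a 30 min room-temperature inhibitor preincubation in 50 mM sodium acetate pH 5.5. Product peak areas by LC-MS/MS gave inhibition; values average at least two independent runs.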

Q: Which IC50 does the source give for `N=C1N[C@](CCCC(F)(F)F)(c2ccc(F)cc2)C(=O)N1Cc1ccc(C(F)(F)F)c(C(=O)N2Cc3cnc(-c4ccc(-n5nccn5)cc4)nc3C2)c1` [Compound 117, (5R)-5-(4-fluorophenyl)-2-imino-3-[3-({2-[4-(2H-1,2,3-triazol-2-yl)phenyl]-5,7-dihydro-6H-pyrrolo[3,4-d]pyrimidin-6-yl}carbonyl)-4-(trifluoromethyl)-benzyl]-5-(4,4,4-trifluorobutyl)-imidazolidin-4-one] here?
A: 38.5 nM

Q: `N=C1NC(c2ccc(F)cc2)(c2ccc(F)cc2)C(=O)N1Cc1cccc(C(=O)N2Cc3ccc(F)cc3C2)c1` [Compound 232, 3-{3-[(5-fluoro-1,3-dihydro-2H-isoindol-2-yl)carbonyl]benzyl}-5,5-bis(4-fluorophenyl)-2-iminoimidazolidin-4-one] was tested. Which IC50 did it give?
A: 13.5 nM

Q: How did the IC50 turn out when `CC(C)CC[C@]1(c2ccccc2)NC(=N)N([C@H](C)c2cccc(C(=O)N3CCN(C)C(=O)C3)c2)C1=O` [Compound 272, 4-[(3-{(1R)-1-[2-imino-4-(3-methylbutyl)-5-oxo-4-phenylimidazolidin-1-yl]ethyl}phenyl)carbonyl]-1-methylpiperazin-2-one] was run?
A: 28.3 nM

Q: Which IC50 does the source give for `N=C1NC(c2ccccc2)(c2ccccc2)C(=O)N1Cc1cccc(C(=O)N2CCc3ccc(C(F)(F)F)cc3C2)c1` [Compound 334, 2-imino-5,5-diphenyl-3-(3-{[7-(trifluoromethyl)-3,4-dihydroisoquinolin-2(1H)-yl]carbonyl}benzyl) imidazolidin-4-one] here?
A: 70 nM

Q: How did the IC50 turn out when `CN(C)c1ncc2c(n1)CN(C(=O)c1cc(CN3C(=N)N[C@](CCCC(F)(F)F)(c4ccc(F)cc4)C3=O)ccc1C(F)(F)F)C2` [Compound 80, (5R)-3-[3-{[2-(dimethylamino)-5,7-dihydro-6H-pyrrolo[3,4-d]pyrimidin-6-yl]carbonyl}-4-(trifluoromethyl)benzyl]-5-(4-fluorophenyl)-2-imino-5-(4,4,4-trifluorobutyl)imidazolidin-4-one] was run?
A: 11.5 nM

Q: How did the IC50 turn out when `CC(C)CC1(c2ccccc2)NC(=N)N(Cc2cccc(C(=O)N3CCN(c4ccccc4Cl)CC3)c2)C1=O` (stereo not shown) [Compound 315, 3-(3-{[4-(2-chlorophenyl)piperazin-1-yl]carbonyl}benzyl)-2-imino-5-(2-methylpropyl)-5-phenylimidazolidin-4-one] was run?
A: 52.3 nM

Q: With `N=C1NC(c2ccccc2)(c2ccccc2)C(=O)N1Cc1ccc(C(F)(F)F)c(C(=O)N2Cc3nccnc3C2)c1` [Compound 143, 3-[3-(5,7-dihydro-6H-pyrrolo[3,4-b]pyrazin-6-ylcarbonyl)-4-(trifluoromethyl)benzyl]-2-imino-5,5-diphenylimidazolidin-4-one] as the compound, how does the IC50 read?
A: 3.43 nM

Q: With `CN1CCOc2cc(-c3ncc4c(n3)CN(C(=O)c3cc(CN5C(=N)N[C@](CCCC(F)(F)F)(c6ccc(F)cc6)C5=O)ccc3C(F)(F)F)C4)cnc21` [Compound 45, (5R)-5-(4-fluorophenyl)-2-imino-3-[3-{[2-(4-methyl-3,4-dihydro-2H-pyrido[3,2-b][1,4]oxazin-7-yl)-5,7-dihydro-6H-pyrrolo[3,4-d]pyrimidin-6-yl]carbonyl}-4-(trifluoromethyl)benzyl]-5-(4,4,4-trifluorobutyl)imidazolidin-4-one] as the compound, how does the IC50 read?
A: 4.6 nM

Q: How did the IC50 turn out when `CC(C)CCC1(c2ccc(F)cc2)NC(=N)N(Cc2ccc(C(F)(F)F)c(C(=O)N3C[C@@H]4C(=O)NC(=O)[C@]4(c4ccccc4)C3)c2)C1=O` (stereo partly drawn) [Compound 159, (3aR,6aR)-5-{[5-{[4-(4-fluorophenyl)-2-imino-4-(3-methylbutyl)-5-oxoimidazolidin-1-yl]methyl}-2-(trifluoromethyl)-phenyl]carbonyl}-3a-phenyltetrahydropyrrolo [3,4-c]pyrrole-1,3 (2H,3aH)-dione] was run?
A: 15.9 nM

Q: `CC(C)CC1(c2ccccc2)NC(=N)N(Cc2ccc(C(F)(F)F)c(C(=O)N3CCC(F)(F)C3)c2)C1=O` (stereo not shown) [Compound 177, 3-{3-[(3,3-difluoropyrrolidin-1-yl)carbonyl]-4-(trifluoromethyl)benzyl}-2-imino-5-(2-methylpropyl)-5-phenylimidazolidin-4-one] was tested. Which IC50 did it give?
A: 70.3 nM

Q: `N=C1NC(c2ccc(F)cc2)(c2ccc(F)cc2)C(=O)N1Cc1cccc(C(=O)N2Cc3cc(Cl)c(Cl)cc3C2)c1` [Compound 286, 3-{3-[(5,6-dichloro-1,3-dihydro-2H-isoindol-2-yl)carbonyl]benzyl}-5,5-bis(4-fluorophenyl)-2-iminoimidazolidin-4-one] was tested. Which IC50 did it give?
A: 33.7 nM

Q: `CC(C)CCC1(c2ccc(F)cc2)NC(=N)N(Cc2ccc(C(F)(F)F)c(C(=O)N3C[C@@H]4ON=C(Nc5ccccc5)[C@@H]4C3)c2)C1=O` (stereo partly shown) [Compound 175] was tested. Which IC50 did it give?
A: 59.7 nM

Q: How did the IC50 turn out when `N=C1N[C@](CCCC(F)(F)F)(c2ccc(F)cc2)C(=O)N1Cc1ccc(C(F)(F)F)c(C(=O)N2Cc3cnc(-c4cnc(-n5cccn5)nc4)nc3C2)c1` [Compound 69, (5R)-5-(4-fluorophenyl)-2-imino-3-[3-({2-[2-(1H-pyrazol-1-yl)pyrimidin-5-yl]-5,7-dihydro-6H-pyrrolo[3,4-d]pyrimidin-6-yl}carbonyl)-4-(trifluoromethyl)benzyl]-5-(4,4,4-trifluorobutyl)imidazolidin-4-one] was run?
A: 8.8 nM

Q: With `CC(C)CC[C@]1(c2ccccc2)NC(=N)N([C@@H]2CCCc3ccc(C(=O)N4Cc5nccnc5C4)cc32)C1=O` [Compound 124, (5R)-3-[(1R)-7-(5,7-dihydro-6H-pyrrolo[3,4-b]pyrazin-6-ylcarbonyl)-1,2,3,4-tetrahydro-naphthalen-1-yl]-2-imino-5-(3-methylbutyl)-5-phenylimidazolidin-4-one] as the compound, how does the IC50 read?
A: 57 nM

Q: `CC(C)CC(c1ccc(C(F)(F)F)c(C(=O)N2Cc3nccnc3C2)c1)N1C(=N)N[C@](CC2CCOCC2)(c2ccc(F)cc2)C1=O` (stereo partly drawn) [Compound 14, (5R)-3-{1-[3-(5,7-dihydro-6H-pyrrolo[3,4-b]pyrazin-6-ylcarbonyl)-4-(trifluoromethyl)phenyl]-3-methylbutyl}-5-(4-fluorophenyl)-2-imino-5-(tetrahydro-2H-pyran-4-ylmethyl)imidazolidin-4-one] was tested. Which IC50 did it give?
A: 1.77 nM

Q: With `N#Cc1ncc2c(n1)CN(C(=O)c1ccnc(CN3C(=N)NC(c4ccccc4)(c4ccccc4)C3=O)c1)C2` [Compound 397, 6-({2-[(2-imino-5-oxo-4,4-diphenylimidazolidin-1-yl)methyl]pyridin-4-yl}carbonyl)-6,7-dihydro-5H-pyrrolo[3,4-d]pyrimidine-2-carbonitrile] as the compound, how does the IC50 read?
A: 18.1 nM

Q: `CC1CN(C(=O)c2cccc(CN3C(=N)NC(c4ccccc4)(c4ccccc4)C3=O)c2)Cc2nnc(C(F)(F)F)n21` (stereo not shown) [Compound 282, 2-imino-3-(3-{[5-methyl-3-(trifluoromethyl)-5,6-dihydro[1,2,4]triazolo[4,3-a]pyrazin-7(8H)-yl]carbonyl}benzyl)-5,5-diphenylimidazolidin-4-one] was tested. Which IC50 did it give?
A: 31.4 nM

Q: For `N=C1NC(c2ccccc2)(c2ccccc2)C(=O)N1Cc1cccc(C(=O)N2CCc3ccncc3C2)c1` [Compound 313, 3-[3-(3,4-dihydro-2,7-naphthyridin-2(1H)-ylcarbonyl)benzyl]-2-imino-5,5-diphenylimidazolidin-4-one], which IC50 is on record?
A: 52.1 nM

Q: Which IC50 does the source give for `COC(=O)Nc1ncc2c(n1)CN(C(=O)c1cccc(CN3C(=N)NC(CC(C)C)(c4ccccc4)C3=O)c1)C2` (stereo not shown) [Compound 188, methyl {6-[(3-{[2-imino-4-(2-methylpropyl)-5-oxo-4-phenylimidazolidin-1-yl]methyl}phenyl)carbonyl]-6,7-dihydro-5H-pyrrolo[3,4-d]pyrimidin-2-yl}carbamate] here?
A: 3.78 nM

Q: `CC(C)CC[C@]1(c2ccccc2)NC(=N)N(Cc2cc(F)cc(C(=O)N3Cc4nccnc4C3)c2)C1=O` [Compound 207, (5R)-3-[3-(5,7-dihydro-6H-pyrrolo[3,4-b]pyrazin-6-ylcarbonyl)-5-fluorobenzyl]-2-imino-5-(3-methylbutyl)-5-phenylimidazolidin-4-one] was tested. Which IC50 did it give?
A: 8.35 nM

Q: With `N#Cc1cccc(-c2ncc3c(n2)CN(C(=O)c2cc(CN4C(=N)N[C@](CCCC(F)(F)F)(c5ccc(F)cc5)C4=O)ccc2C(F)(F)F)C3)c1` [Compound 79, 3-(6-{[5-{[(4R)-4-(4-fluorophenyl)-2-imino-5-oxo-4-(4,4,4-trifluoro-butyl)imidazolidin-1-yl]methyl}-2-(trifluoromethyl)-phenyl]carbonyl}-6,7-dihydro-5H-pyrrolo[3,4-d]pyrimidin-2-yl)benzonitrile] as the compound, how does the IC50 read?
A: 10.8 nM

Q: How did the IC50 turn out when `COc1ccc(CN2C(=N)NC(c3ccc(Cl)cc3)(c3ccc(Cl)cc3)C2=O)cc1C(=O)N1Cc2nccnc2C1` [Compound 369, 5,5-bis(4-chlorophenyl)-3-[3-(5,7-dihydro-6H-pyrrolo[3,4-b]pyrazin-6-ylcarbonyl)-4-methoxybenzyl]-2-iminoimidazolidin-4-one] was run?
A: 31.4 nM

Q: Which IC50 does the source give for `N=C1NC(C[C@@H]2CCOC2)(c2ccccc2)C(=O)N1Cc1ccc(C(F)(F)F)c(C(=O)N2CCn3c(nnc3C(F)(F)F)C2)c1` (stereo partly drawn) [Compound 105, 2-imino-5-phenyl-5-[(3R)-tetrahydrofuran-3-ylmethyl]-3-[4-(trifluoromethyl)-3-{[3-(trifluoro-methyl)-5,6-dihydro[1,2,4]triazolo-[4,3-a]pyrazin-7(8H)-yl]carbonyl}-benzyl]limidazolidin-4-one] here?
A: 24.7 nM

Q: How did the IC50 turn out when `CS(=O)(=O)CCn1cc(-c2ncc3c(n2)CN(C(=O)c2cc(CN4C(=N)N[C@](CCCC(F)(F)F)(c5ccc(F)cc5)C4=O)ccc2C(F)(F)F)C3)cn1` [Compound 17, (5R)-5-(4-fluorophenyl)-2-imino-3-{3-[(2-{1-[2-(methylsulfonyl)ethyl]-1H-pyrazol-4-yl}-5,7-dihydro-6H-pyrrolo[3,4-d]pyrimidin-6-yl)carbonyl]-4-(trifluoromethyl)-benzyl}-5-(4,4,4-trifluorobutyl)-imidazolidin-4-one] was run?
A: 1.99 nM

Q: `C[C@H](c1cccc(C(=O)N2Cc3cncnc3C2)c1)N1C(=N)NC(c2ccc(F)cc2)(c2ccc(F)cc2)C1=O` [Compound 198, 3-{(1R)-1-[3-(5,7-dihydro-6H-pyrrolo[3,4-d]pyrimidin-6-ylcarbonyl)phenyl]ethyl}-5,5-bis(4-fluorophenyl)-2-iminoimidazolidin-4-one] was tested. Which IC50 did it give?
A: 5.36 nM
